From article PMC6681021 (Pharmaceutics, 2019)
Values joined by “and” are separate entries in the source; they are usually repeats but may differ in a detail not shown here. Equal values may be shown once.

Assays:
[1] = Human pharmacokinetics of tofacitinib (literature); type: in vivo; settings: humans; 100–74%
[2] = Pharmacokinetics after 1-min intravenous infusion of tofacitinib to rats; type: in vivo, Sprague-Dawley rats; settings: for clearance / CL renal / MRT / half-life / Vd: Sprague-Dawley; for clearance / CL renal / MRT / half-life / Vd / AUC: rat; for Dose-normalized AUC: normalized to 10 mg/kg; for half-life: read-out: Terminal half-life; for Vd: read-out: Vss; for AUC: 1-min iv infusion, male Sprague-Dawley rats
Method: The pretreatment and surgical procedures for oral and intravenous administration were similar to those described previously. For oral administration, the rats were fasted overnight with free access to water. The rats were anesthetized with ketamine (200 mg/kg), and their carotid arteries were cannulated using polyethylene tubing (Clay Adams, Parsippany, NJ, USA) for blood sampling. For intravenous administration, the rats were anesthetized with ketamine (200 mg/kg), and their jugular veins and carotid arteries were cannulated for drug administration and blood sampling, respectively. Rats were allowed to recover for 4–5 h after surgical procedures. The rats were not restrained during the experimental period and had free access to water and food.
Blood samples (110–220 μL) were collected via the carotid artery at times 0 (prior to drug administration), 1 (at the end of drug infusion), 5, 15, 30, 45, 60, 90, 120, 180, 240, 360, 480, and 600 min. […] To prevent blood clotting, 0.3 mL of heparinized 0.9% NaCl-injectable solution (20 IU/mL) was immediately injected into the carotid artery after each blood sampling. Urine samples were collected over 24 h; in addition, each metabolic cage was rinsed with 20 mL of distilled water 24 h after drug administration, and the rinses were combined with their corresponding 24-h urine samples. […] At 24-h, each rat was exsanguinated, followed by cervical dislocation. The abdomen of each rat was opened and the entire gastrointestinal tract, including its contents and feces, was removed, transferred to a beaker containing 50 mL methanol, and cut into small pieces using scissors.
Two microliters of hydrocortisone (5 mg/mL) and 40 μL of 20% ammonia solution were added to 100 μL aliquots of biological samples and vortex-mixed for 30 s using a vortex mixer. Each solution was extracted with 1.5 mL of ethyl acetate by centrifugation at 12,000 rpm for 5 min. The organic layer was collected and dried (Dry Thermobath, Eyela, Tokyo, Japan) under a gentle stream of nitrogen gas at 40 °C. The samples were reconstituted in 130 μL of 20% acetonitrile, and 50 μL of resuspended samples were analyzed by HPLC [12].
The mobile phase consisted of a 69.5:30.5 (v/v) mixture of 10 mM ammonium acetate buffer (pH 5.0) and acetonitrile, respectively, with a flow rate of 1.0 mL/min. Column effluent was monitored by a UV detector at 287 nm.
(§1) Pharmacokinetic parameters, including AUC, apparent volume of distribution at steady state (Vss), mean residence time (MRT), and time-averaged total body (CL), renal (CLR), and nonrenal (CLNR) clearances, were calculated by noncompartmental analysis (WinNonlin, Pharsight Corporation, Mountain View, CA, USA) using standard methods. AUC values were calculated using the trapezoidal rule–extrapolation method. The peak plasma concentration (Cmax) and time to reach Cmax (Tmax) were obtained directly from the experimental data. The mean values of clearance, terminal half-life, and Vss were calculated using the harmonic mean method.

[3] = Hepatic first-pass effect: 30-min intravenous vs intraportal infusion in rats; type: in vivo, Sprague-Dawley rats; settings: for AUC / CL renal / MRT / clearance / half-life / Vd: Sprague-Dawley, rat, plasma; for half-life: read-out: Terminal half-life; for Vd: read-out: Vss
Method: The carotid artery and jugular vein were handled as described previously. In addition, the vein from the cecum was cannulated and the cannula was pushed forward about 4 cm toward the liver through the portal vein to minimize the damage from blood flowing into the portal vein [13, 14]. […] Blood samples were collected from the carotid artery at times 0, 15, 30 (at the end of the infusion), 31, 35, 45, 60, 90, 150, 210, 270, 390, 510, and 630 min, with all sample collection and processing procedures identical to those described above.
as §1

[4] = 30-min intraportal infusion, 10 mg/kg (n = 7)
[5] = 30-min intravenous infusion, 10 mg/kg

- Oral dose presumed first-pass metabolized in the intestine and the liver [1]: 26%
- clearance ([2]; plasma, iv 50 mg/kg): 14.5 ± 2.33 mL/min/kg
- Ae0–24 h ([2]; all intravenous doses): less than 11.0%
- Slope of plot of AUC versus dose ([2]; intravenous, dose and AUC ratios based on 5 mg/kg): 2.74
- CLR slower at 50 mg/kg than at 5 mg/kg ([2]; iv): 69%
- CLR slower at 50 mg/kg than at 10 mg/kg ([2]; iv): 71%
- CLR slower at 50 mg/kg than at 20 mg/kg ([2]; iv): 71%
- Ae0–24 h (excreted unchanged in 24-h urine) ([2]; iv 5 mg/kg): 7.62 ± 5.08 % of dose
- CLNR ([2]; iv 5 mg/kg): 32.9 ± 7.72 mL/min/kg
- Dose-normalized AUC ([2]; iv 5 mg/kg): 282 µg·min/mL and 282 ± 46.0 µg·min/mL
- Ae0–24 h (excreted unchanged in 24-h urine) ([2]; iv 10 mg/kg): 9.40 ± 5.06 % of dose
- CLNR ([2]; iv 10 mg/kg): 26.3 ± 2.16 mL/min/kg
- Dose-normalized AUC ([2]; iv 10 mg/kg): 342 µg·min/mL and 342 ± 33.1 µg·min/mL
- Ae0–24 h (excreted unchanged in 24-h urine) ([2]; iv 20 mg/kg): 11.0 ± 3.72 % of dose
- CLNR ([2]; iv 20 mg/kg): 22.6 ± 3.90 mL/min/kg
- Dose-normalized AUC ([2]; iv 20 mg/kg): 404 µg·min/mL and 404 ± 73.0 µg·min/mL
- Ae0–24 h (excreted unchanged in 24-h urine) ([2]; iv 50 mg/kg): 5.55 ± 3.91 % of dose
- CLNR ([2]; iv 50 mg/kg): 13.7 ± 2.12 mL/min/kg
- Dose-normalized AUC ([2]; iv 50 mg/kg): 705 µg·min/mL and 705 ± 114 µg·min/mL
- CL renal ([2]; male, plasma, iv 5 mg/kg): 2.69 ± 1.7 mL/min/kg
- MRT ([2]; male, plasma, iv 5 mg/kg): 35.2 min
- clearance ([2]; male, plasma, iv 5 mg/kg): 36.3 ± 6.02 mL/min/kg
- half-life ([2]; male, plasma, iv 5 mg/kg): 38.2 ± 11.7 min
- Vd ([2]; male, plasma, iv 5 mg/kg): 1.26 ± 0.46 L/kg
- CL renal ([2]; male, plasma, iv 10 mg/kg): 2.8 ± 1.69 mL/min/kg
- MRT ([2]; male, plasma, iv 10 mg/kg): 41.1 min
- clearance ([2]; male, plasma, iv 10 mg/kg): 29.5 ± 2.99 mL/min/kg
- half-life ([2]; male, plasma, iv 10 mg/kg): 41.6 ± 7.86 min
- Vd ([2]; male, plasma, iv 10 mg/kg): 1.21 ± 0.579 L/kg
- CL renal ([2]; male, plasma, iv 20 mg/kg): 2.8 ± 1.17 mL/min/kg
- MRT ([2]; male, plasma, iv 20 mg/kg): 35.5 min
- clearance ([2]; male, plasma, iv 20 mg/kg): 25.4 ± 4.26 mL/min/kg
- half-life ([2]; male, plasma, iv 20 mg/kg): 48.1 ± 5.56 min
- Vd ([2]; male, plasma, iv 20 mg/kg): 0.9 ± 0.218 L/kg
- CL renal ([2]; male, plasma, iv 50 mg/kg): 0.824 ± 0.651 mL/min/kg
- MRT ([2]; male, plasma, iv 50 mg/kg): 105 min
- half-life ([2]; male, plasma, iv 50 mg/kg): 97.8 ± 19.2 min
- Vd ([2]; male, plasma, iv 50 mg/kg): 1.49 ± 0.134 L/kg
- clearance ([2]; male, range over intravenous doses, based on plasma data): 14.5 to 36.3 mL/min/kg
- AUC ([2]; plasma, 5 mg/kg): 2350 ng·h/mL
- AUC ([2]; plasma, 10 mg/kg): 5700 ng·h/mL
- AUC ([2]; plasma, 20 mg/kg): 13500 ng·h/mL
- AUC ([2]; plasma, 50 mg/kg): 58800 ng·h/mL
- AUC after intraportal administration as % of that after intravenous administration ([3]; 10 mg/kg): 58.0%
- CL faster after intraportal than intravenous administration ([3]; 10 mg/kg): 67%
- CLNR faster after intraportal than intravenous administration ([3]; 10 mg/kg): 60%
- Vss higher after intraportal than intravenous administration ([3]; 10 mg/kg): 50%
- Ae0–24 h [3, 4]: 10.7 ± 9.42 % of dose
- CLNR [3, 4]: 38.5 ± 10.4 mL/min/kg
- Ae0–24 h [3, 5]: 12.5 ± 5.20 % of dose
- CLNR [3, 5]: 24.0 ± 6.46 mL/min/kg
- AUC [3, 4]: 4030 ng·h/mL
- CL renal [3, 4]: 5 ± 4.69 mL/min/kg
- MRT [3, 4]: 59.6 min
- clearance [3, 4]: 43.8 ± 11 mL/min/kg
- half-life [3, 4]: 42.4 ± 10.4 min
- Vd [3, 4]: 2.55 ± 0.72 L/kg
- AUC [3, 5]: 6950 ng·h/mL
- CL renal [3, 5]: 2.34 ± 2.9 mL/min/kg
- MRT [3, 5]: 67.5 min
- clearance [3, 5]: 26.3 ± 8.85 mL/min/kg
- half-life [3, 5]: 46.2 ± 12.5 min
- Vd [3, 5]: 1.7 ± 0.737 L/kg
Structure (SMILES): C[C@@H]1CCN(C(=O)CC#N)C[C@@H]1N(C)c1ncnc2[nH]ccc12 [tofacitinib, 3-[(3R,4R)-4-methyl-3-[methyl-(7H-pyrrolo[2,3-day]pyrimidin-4-l)amino]piperidin-1-yl]-3-oxopropanenitril]
